# Laboratory results reported in patent US12319709B2, “Diaryl trehalose compounds and uses thereof” (THE UNIVERSITY OF MONTANA, priority 2018, dated 2025).
# Test system: RAW264.7 cells
# Experiment: Cytokine (TNFα) response of mouse macrophage cell line; Table 2 'Murine'
# Format: cell-based
# Design: Maximum cytokine response Murine: unit not given here
# Settings: NR = no response
# Experimental: Compounds were also tested in a mouse macrophage cell line (FIG. 4B). RAW264.7 cells were subjected to increasing concentrations of the compounds and assessed for production of the cytokine TNFα.
Compound,Maximum cytokine response Murine,Minimal Effective Concentration Murine
COc1cccc(C(=O)OC[C@H]2O[C@H](O[C@H]3O[C@H](COC(=O)c4cccc(OC)c4OC)[C@@H](O)[C@H](O)[C@H]3O)[C@H](O)[C@@H](O)[C@@H]2O)c1OC [UM1013],3,37 µM
CCc1cc(CC)cc(C(=O)OCC2OC(OC3OC(COC(=O)c4cc(CC)cc(CC)c4)C(O)C(O)C3O)C(O)C(O)C2O)c1 (centres unmarked) [UM1017],2.5,4.1 µM
O=C(OC[C@H]1O[C@H](O[C@H]2O[C@H](COC(=O)c3ccccc3-c3ccccc3)[C@@H](O)[C@H](O)[C@H]2O)[C@H](O)[C@@H](O)[C@@H]1O)c1ccccc1-c1ccccc1 [UM1039],0.9,33 µM
O=C(OC[C@H]1O[C@H](O[C@H]2O[C@H](COC(=O)c3cccc(-c4ccccc4)c3)[C@@H](O)[C@H](O)[C@H]2O)[C@H](O)[C@@H](O)[C@@H]1O)c1cccc(-c2ccccc2)c1 [UM1040],0.9,100 µM
COc1ccc(C(F)(F)F)cc1C(=O)OC[C@H]1O[C@H](O[C@H]2O[C@H](COC(=O)c3cc(C(F)(F)F)ccc3OC)[C@@H](O)[C@H](O)[C@H]2O)[C@H](O)[C@@H](O)[C@@H]1O [UM1045],1.3,0.05 µM
O=C(OC[C@H]1O[C@H](O[C@H]2O[C@H](COC(=O)c3cccc(-c4cccc(O)c4)c3)[C@@H](O)[C@H](O)[C@H]2O)[C@H](O)[C@@H](O)[C@@H]1O)c1cccc(-c2cccc(O)c2)c1 [UM1057],1.8,33 µM
Cc1ccc(-c2cccc(C(=O)OC[C@H]3O[C@H](O[C@H]4O[C@H](COC(=O)c5cccc(-c6ccc(C)cc6)c5)[C@@H](O)[C@H](O)[C@H]4O)[C@H](O)[C@@H](O)[C@@H]3O)c2)cc1 [UM1058],2.5,33 µM
COc1cc(-c2cccc(C(=O)OC[C@H]3O[C@H](O[C@H]4O[C@H](COC(=O)c5cccc(-c6ccc(F)c(OC)c6)c5)[C@@H](O)[C@H](O)[C@H]4O)[C@H](O)[C@@H](O)[C@@H]3O)c2)ccc1F [UM1059],1.8,33 µM
O=C(OC[C@H]1O[C@H](O[C@H]2O[C@H](COC(=O)c3cc(O)cc(-c4ccccc4)c3)[C@@H](O)[C@H](O)[C@H]2O)[C@H](O)[C@@H](O)[C@@H]1O)c1cc(O)cc(-c2ccccc2)c1 [UM1061],3,100 µM
O=C(OC[C@H]1O[C@H](O[C@H]2O[C@H](COC(=O)c3cccc(-c4ccccc4)c3O)[C@@H](O)[C@H](O)[C@H]2O)[C@H](O)[C@@H](O)[C@@H]1O)c1cccc(-c2ccccc2)c1O [UM1063],2.5,100 µM
O=C(CCc1ccc(O)c(-c2ccccc2)c1)OC[C@H]1O[C@H](O[C@H]2O[C@H](COC(=O)CCc3ccc(O)c(-c4ccccc4)c3)[C@@H](O)[C@H](O)[C@H]2O)[C@H](O)[C@@H](O)[C@@H]1O [UM1064],2.5,100 µM
COc1ccc(C(=O)OC[C@H]2O[C@H](O[C@H]3O[C@H](COC(=O)c4ccc(OC)cc4C(F)(F)F)[C@@H](O)[C@H](O)[C@H]3O)[C@H](O)[C@@H](O)[C@@H]2O)c(C(F)(F)F)c1 [UM1067],1.5,100 µM
CN(C)c1cccc(C(=O)OC[C@H]2O[C@H](O[C@H]3O[C@H](COC(=O)c4cccc(N(C)C)c4)[C@@H](O)[C@H](O)[C@H]3O)[C@H](O)[C@@H](O)[C@@H]2O)c1 [UM1076],1.3,3.7 µM
CCOc1cc(OCC)cc(C(=O)NC[C@H]2O[C@H](O[C@H]3O[C@H](CNC(=O)c4cc(OCC)cc(OCC)c4)[C@@H](O)[C@H](O)[C@H]3O)[C@H](O)[C@@H](O)[C@@H]2O)c1 [UM1105],11,3 µM
CC(C)(C)c1ccc(O)c(C(=O)NC[C@H]2O[C@H](O[C@H]3O[C@H](CNC(=O)c4cc(C(C)(C)C)ccc4O)[C@@H](O)[C@H](O)[C@H]3O)[C@H](O)[C@@H](O)[C@@H]2O)c1 [UM1106],11,3 µM
Cc1cc(C)cc(C(=O)NC[C@H]2O[C@H](O[C@H]3O[C@H](CNC(=O)c4cc(C)cc(C)c4)[C@@H](O)[C@H](O)[C@H]3O)[C@H](O)[C@@H](O)[C@@H]2O)c1 [UM1108],33,3 µM
CCc1cc(CC)cc(C(=O)NC[C@H]2O[C@H](O[C@H]3O[C@H](CNC(=O)c4cc(CC)cc(CC)c4)[C@@H](O)[C@H](O)[C@H]3O)[C@H](O)[C@@H](O)[C@@H]2O)c1 [UM1109],0.4,3.2 µM
O=C(NC[C@H]1O[C@H](O[C@H]2O[C@H](CNC(=O)c3ccccc3C(F)(F)F)[C@@H](O)[C@H](O)[C@H]2O)[C@H](O)[C@@H](O)[C@@H]1O)c1ccccc1C(F)(F)F [UM1112],2,100 µM
Cc1cc(C)c(C)c(C(=O)OC[C@H]2O[C@H](O[C@H]3O[C@H](COC(=O)c4c(C)c(C)cc(C)c4C)[C@@H](O)[C@H](O)[C@H]3O)[C@H](O)[C@@H](O)[C@@H]2O)c1C [UM1113],11,2.5 µM
Cc1cccc(C)c1C(=O)OC[C@H]1O[C@H](O[C@H]2O[C@H](COC(=O)c3c(C)cccc3C)[C@@H](O)[C@H](O)[C@H]2O)[C@H](O)[C@@H](O)[C@@H]1O [UM1114],11,2.5 µM
Cc1cc(C)c(C(=O)OC[C@H]2O[C@H](O[C@H]3O[C@H](COC(=O)c4c(C)cc(C)cc4C)[C@@H](O)[C@H](O)[C@H]3O)[C@H](O)[C@@H](O)[C@@H]2O)c(C)c1 [UM1115],11,3.3 µM
O=C(OC[C@H]1O[C@H](O[C@H]2O[C@H](CO)[C@@H](O)[C@H](O)[C@H]2O)[C@H](O)[C@@H](O)[C@@H]1O)c1ccc([N+](=O)[O-])cc1[N+](=O)[O-] [UM1119],11,2.2 µM
O=C(OC[C@H]1O[C@H](O[C@H]2O[C@H](CO)[C@@H](O)[C@H](O)[C@H]2O)[C@H](O)[C@@H](O)[C@@H]1O)c1ccccc1C(F)(F)F [UM1121],11,2.5 µM

# Same assay, conditions: NR = no response, listed as 1014
Compound,Maximum cytokine response Murine,Minimal Effective Concentration Murine
COc1cc(OC)cc(C(=O)OC[C@H]2O[C@H](O[C@H]3O[C@H](COC(=O)c4cc(OC)cc(OC)c4)[C@@H](O)[C@H](O)[C@H]3O)[C@H](O)[C@@H](O)[C@@H]2O)c1 [UM1014],3.3,37 µM

# Test system: peripheral blood mononuclear cells (PBMCs)
# Experiment: IL-6 induction in fresh human PBMCs
# Format: cell-based
# Settings: compounds in DMSO serially diluted in media, supernatants 18 h after treatment; listed as 1014
# Experimental: Tumor necrosis factor alpha (TNFα) and IL-6 production in peripheral blood mononuclear cells (PBMCs) was measured after exposure to various concentrations of the DAT compounds synthesized as shown above. Initial studies focused on two different methods of delivery of the DAT compounds to PBMC cultures. In the first delivery method, the indicated derivative compound was dissolved in isopropanol, serially diluted, and then dried to the bottom of a tissue culture plate. In the second delivery method, the indicated derivative compound was dissolved in DMSO and serially diluted into tissue culture media. In each method, PBMCs were added to the compounds and incubated at 37° C. TNFα (FIG. 1A) and IL-6 (FIG. 1B) were measured after 18-24 hours after treatment by ELISA assay.
# The isolated PBMCs were exposed to increasing concentrations of the indicated compounds resuspended in DMSO and serially diluted in media. IL-6 levels were determined from supernatants eighteen hours after treatment (FIG. 3).
row,Compound,IL-6 production / activity in fresh PBMCs from multiple donors (in words)
1,COc1cc(OC)cc(C(=O)OC[C@H]2O[C@H](O[C@H]3O[C@H](COC(=O)c4cc(OC)cc(OC)c4)[C@@H](O)[C@H](O)[C@H]3O)[C@H](O)[C@@H](O)[C@@H]2O)c1 [UM1014],inactive

# Same assay, conditions: human IL-6; NR = no response
Compound,Maximum cytokine response h-IL-6,Minimal Effective Concentration h-IL-6
CCCOc1cc(OCCC)cc(C(=O)OC[C@H]2O[C@H](O[C@H]3O[C@H](COC(=O)c4cc(OCCC)cc(OCCC)c4)[C@@H](O)[C@H](O)[C@H]3O)[C@H](O)[C@@H](O)[C@@H]2O)c1 [UM1050],3.3 OD,9 µM
O=C(OC[C@H]1O[C@H](O[C@H]2O[C@H](COC(=O)c3cccc(C(F)(F)F)c3O)[C@@H](O)[C@H](O)[C@H]2O)[C@H](O)[C@@H](O)[C@@H]1O)c1cccc(C(F)(F)F)c1O [UM1053],0.5 OD,100 µM
O=C(OC[C@H]1O[C@H](O[C@H]2O[C@H](COC(=O)c3cc(C(F)(F)F)cc(C(F)(F)F)c3)[C@@H](O)[C@H](O)[C@H]2O)[C@H](O)[C@@H](O)[C@@H]1O)c1cc(C(F)(F)F)cc(C(F)(F)F)c1 [UM1054],1.5 OD,100 µM
O=C(OC[C@H]1O[C@H](O[C@H]2O[C@H](COC(=O)c3cccc(-c4ccccc4O)c3)[C@@H](O)[C@H](O)[C@H]2O)[C@H](O)[C@@H](O)[C@@H]1O)c1cccc(-c2ccccc2O)c1 [UM1060],3.3 OD,33.3 µM
COc1cc(C(=O)OC[C@H]2O[C@H](O[C@H]3O[C@H](COC(=O)c4cc(OC)c(Br)c(OC)c4)[C@@H](O)[C@H](O)[C@H]3O)[C@H](O)[C@@H](O)[C@@H]2O)cc(OC)c1Br [UM1077],2.5 OD,100 µM
CCOc1cc(C(C)(C)C)ccc1C(=O)OC[C@H]1O[C@H](O[C@H]2O[C@H](COC(=O)c3ccc(C(C)(C)C)cc3OCC)[C@@H](O)[C@H](O)[C@H]2O)[C@H](O)[C@@H](O)[C@@H]1O [UM1132],2.6 OD,100 µM
CCOc1cc(C(=O)OC[C@H]2O[C@H](O[C@H]3O[C@H](COC(=O)c4ccc(OCc5ccccc5)c(OCC)c4)[C@@H](O)[C@H](O)[C@H]3O)[C@H](O)[C@@H](O)[C@@H]2O)ccc1OCc1ccccc1 [UM1134],0.5 OD,100 µM
Cc1ccc(C)c(C(C)(C)CC(=O)OC[C@H]2O[C@H](O[C@H]3O[C@H](COC(=O)CC(C)(C)c4cc(C)ccc4C)[C@@H](O)[C@H](O)[C@H]3O)[C@H](O)[C@@H](O)[C@@H]2O)c1 [UM1137],1 OD,100 µM
